Experimental data from the supplement of paper PMC10307832.

Experiments:
Assay in all cases: relative viability (nuclei count vs DMSO), 5 days (fraction); higher = more cells survive
[1] = system: COR-L 105
Outline: (§1)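 Five library-drug doses in √10 steps were combined with a fixed anchor-drug dose, or a single drug was given alone, by pin tool to lung cancer cell lines in 1536-well plates the day after seeding. Nuclei were stained and counted after 5 days. Relative viability is the nuclei count in treated wells over that in vehicle wells, taken as the median of duplicate plates.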

[2] = system: NCI-H2009
Outline: as §1

[3] = system: NCI-H441
Outline: as §1

[4] = system: LU99A
Outline: as §1

[5] = system: NCI-H1437
Outline: as §1

[6] = system: PC-14
Outline: as §1

[7] = system: ABC-1
Outline: as §1

[8] = system: NCI-H661
Outline: as §1

[9] = system: HARA
Outline: as §1

[10] = system: NCI-H2170
Outline: as §1

[11] = system: BEN
Outline: as §1

[12] = system: NCI-H727
Outline: as §1

For `COc1cc(N2CCC(C(N)=O)CC2)ccc1Nc1nc(N)c(Cl)c(Nc2ccccc2S(=O)(=O)C(C)C)n1` [HG-5-88-01] + N=C(N)NC(=N)NCCc1ccccc1 [Phenformin] (partner 250 µM), which relative viability ([1]; first compound 0.04 µM) is on record?
The relative viability was 0.61.

And the relative viability ([1]; first compound 0.1265 µM)?
Its relative viability is 0.511.

And the relative viability ([1]; first compound 0.4 µM)?
Its relative viability is 0.47.

And the relative viability ([1]; first compound 1.265 µM)?
Its relative viability is 0.324.

What about the relative viability ([1]; first compound 4 µM) of the same compound?
Its relative viability is 0.296.

What about the relative viability ([2]; first compound 0.04 µM) of the same compound?
The relative viability was 0.475.

What about the relative viability ([2]; first compound 0.1265 µM) of the same compound?
Its relative viability is 0.527.

What about the relative viability ([2]; first compound 0.4 µM) of the same compound?
Its relative viability is 0.534.

What about the relative viability ([2]; first compound 1.265 µM) of the same compound?
Its relative viability is 0.484.

And the relative viability ([2]; first compound 4 µM)?
The relative viability was 0.366.

What about the relative viability ([3]; first compound 0.04 µM) of the same compound?
The relative viability was 0.835.

And the relative viability ([3]; first compound 0.1265 µM)?
Its relative viability is 0.789.

What about the relative viability ([3]; first compound 0.4 µM) of the same compound?
The relative viability was 0.852.

And the relative viability ([3]; first compound 1.265 µM)?
Its relative viability is 0.589.

What about the relative viability ([3]; first compound 4 µM) of the same compound?
The relative viability was 0.294.

And the relative viability ([4]; first compound 0.04 µM)?
Its relative viability is 0.801.

What about the relative viability ([4]; first compound 0.1265 µM) of the same compound?
The relative viability was 0.78.

And the relative viability ([4]; first compound 0.4 µM)?
Its relative viability is 0.823.

What about the relative viability ([4]; first compound 1.265 µM) of the same compound?
Its relative viability is 0.921.

And the relative viability ([4]; first compound 4 µM)?
The relative viability was 0.593.

And the relative viability ([5]; first compound 0.04 µM)?
Its relative viability is 0.37.

And the relative viability ([5]; first compound 0.1265 µM)?
The relative viability was 0.335.

And the relative viability ([5]; first compound 0.4 µM)?
Its relative viability is 0.466.

And the relative viability ([5]; first compound 1.265 µM)?
The relative viability was 0.37.

And the relative viability ([5]; first compound 4 µM)?
Its relative viability is 0.194.

What about the relative viability ([6]; first compound 0.04 µM) of the same compound?
Its relative viability is 0.65.

What about the relative viability ([6]; first compound 0.1265 µM) of the same compound?
The relative viability was 0.522.

What about the relative viability ([6]; first compound 0.4 µM) of the same compound?
The relative viability was 0.484.

What about the relative viability ([6]; first compound 1.265 µM) of the same compound?
The relative viability was 0.212.

What about the relative viability ([6]; first compound 4 µM) of the same compound?
Its relative viability is 0.103.

What about the relative viability ([7]; first compound 0.04 µM) of the same compound?
The relative viability was 0.272.

And the relative viability ([7]; first compound 0.1265 µM)?
The relative viability was 0.233.

What about the relative viability ([7]; first compound 0.4 µM) of the same compound?
The relative viability was 0.2.

And the relative viability ([7]; first compound 1.265 µM)?
Its relative viability is 0.207.

And the relative viability ([7]; first compound 4 µM)?
Its relative viability is 0.24.

And the relative viability ([8]; first compound 0.04 µM)?
The relative viability was 0.301.

What about the relative viability ([8]; first compound 0.1265 µM) of the same compound?
Its relative viability is 0.277.

What about the relative viability ([8]; first compound 0.4 µM) of the same compound?
The relative viability was 0.259.

What about the relative viability ([8]; first compound 1.265 µM) of the same compound?
Its relative viability is 0.24.

What about the relative viability ([8]; first compound 4 µM) of the same compound?
The relative viability was 0.248.

What about the relative viability ([9]; first compound 0.04 µM) of the same compound?
Its relative viability is 0.439.

What about the relative viability ([9]; first compound 0.1265 µM) of the same compound?
The relative viability was 0.513.

What about the relative viability ([9]; first compound 0.4 µM) of the same compound?
Its relative viability is 0.48.

What about the relative viability ([9]; first compound 1.265 µM) of the same compound?
The relative viability was 0.432.

What about the relative viability ([9]; first compound 4 µM) of the same compound?
Its relative viability is 0.324.

What about the relative viability ([10]; first compound 0.04 µM) of the same compound?
The relative viability was 0.466.

And the relative viability ([10]; first compound 0.1265 µM)?
The relative viability was 0.442.

And the relative viability ([10]; first compound 0.4 µM)?
Its relative viability is 0.461.

And the relative viability ([10]; first compound 1.265 µM)?
The relative viability was 0.304.

What about the relative viability ([10]; first compound 4 µM) of the same compound?
The relative viability was 0.352.

What about the relative viability ([11]; first compound 0.04 µM) of the same compound?
Its relative viability is 0.304.

What about the relative viability ([11]; first compound 0.1265 µM) of the same compound?
The relative viability was 0.271.

What about the relative viability ([11]; first compound 0.4 µM) of the same compound?
Its relative viability is 0.274.

What about the relative viability ([11]; first compound 1.265 µM) of the same compound?
The relative viability was 0.267.

What about the relative viability ([11]; first compound 4 µM) of the same compound?
The relative viability was 0.285.

And the relative viability ([12]; first compound 0.04 µM)?
Its relative viability is 0.554.

What about the relative viability ([12]; first compound 0.1265 µM) of the same compound?
The relative viability was 0.484.

And the relative viability ([12]; first compound 0.4 µM)?
Its relative viability is 0.394.

And the relative viability ([12]; first compound 1.265 µM)?
The relative viability was 0.416.

And the relative viability ([12]; first compound 4 µM)?
The relative viability was 0.352.
